Measured values as given in the supplement of paper PMC11451515.

Tested on: NOMO1
Test: cell viability relative to DMSO control; higher = less cytotoxic
Conditions: 48 h
Method in brief: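 Library compounds in DMSO were pin-dosed into 1536-well plates (5 μl) holding NOMO1 or SEM (500 cells/well) or P12-Ichikawa (1000 cells/well) leukemia cells, across an 11-point threefold series of 47 μM to 0.79 nM. Each cell line had been adapted for at least four passages in each medium. CellTiter-Glo One luminescence was read after 48 h at 37°C. Viability is the per-plate percentage relative to DMSO wells, with cell-free wells as background.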

[1] = HPLM + 10% dialyzed FBS, 0.000781 µM
[2] = HPLM + 10% dialyzed FBS, 0.00234 µM
[3] = HPLM + 10% dialyzed FBS, 0.00702 µM
[4] = HPLM + 10% dialyzed FBS, 0.0211 µM
[5] = HPLM + 10% dialyzed FBS, 0.0632 µM
[6] = HPLM + 10% dialyzed FBS, 0.19 µM
[7] = HPLM + 10% dialyzed FBS, 0.569 µM
[8] = HPLM + 10% dialyzed FBS, 1.71 µM
[9] = HPLM + 10% dialyzed FBS, 5.12 µM
[10] = HPLM + 10% dialyzed FBS, 15.4 µM
[11] = HPLM + 10% dialyzed FBS, 46.1 µM
[12] = RPMI 5 mM glucose + 10% FBS, 0.000781 µM
[13] = RPMI 5 mM glucose + 10% FBS, 0.00234 µM
[14] = RPMI 5 mM glucose + 10% FBS, 0.00702 µM
[15] = RPMI 5 mM glucose + 10% FBS, 0.0211 µM
[16] = RPMI 5 mM glucose + 10% FBS, 0.0632 µM
[17] = RPMI 5 mM glucose + 10% FBS, 0.19 µM
[18] = RPMI 5 mM glucose + 10% FBS, 0.569 µM
[19] = RPMI 5 mM glucose + 10% FBS, 1.71 µM
[20] = RPMI 5 mM glucose + 10% FBS, 5.12 µM
[21] = RPMI 5 mM glucose + 10% FBS, 15.4 µM
[22] = RPMI 5 mM glucose + 10% FBS, 46.1 µM
[23] = RPMI 5 mM glucose + 10% dialyzed FBS, 0.000781 µM
[24] = RPMI 5 mM glucose + 10% dialyzed FBS, 0.00234 µM
[25] = RPMI 5 mM glucose + 10% dialyzed FBS, 0.00702 µM
[26] = RPMI 5 mM glucose + 10% dialyzed FBS, 0.0211 µM
[27] = RPMI 5 mM glucose + 10% dialyzed FBS, 0.0632 µM
[28] = RPMI 5 mM glucose + 10% dialyzed FBS, 0.19 µM
[29] = RPMI 5 mM glucose + 10% dialyzed FBS, 0.569 µM
[30] = RPMI 5 mM glucose + 10% dialyzed FBS, 1.71 µM
[31] = RPMI 5 mM glucose + 10% dialyzed FBS, 5.12 µM
[32] = RPMI 5 mM glucose + 10% dialyzed FBS, 15.4 µM
[33] = RPMI 5 mM glucose + 10% dialyzed FBS, 46.1 µM

SMILES | cell viability [1] [%] | cell viability [2] [%] | cell viability [3] [%] | cell viability [4] [%] | cell viability [5] [%] | cell viability [6] [%] | cell viability [7] [%] | cell viability [8] [%] | cell viability [9] [%] | cell viability [10] [%] | cell viability [11] [%] | cell viability [12] [%] | cell viability [13] [%] | cell viability [14] [%] | cell viability [15] [%] | cell viability [16] [%] | cell viability [17] [%] | cell viability [18] [%] | cell viability [19] [%] | cell viability [20] [%] | cell viability [21] [%] | cell viability [22] [%] | cell viability [23] [%] | cell viability [24] [%] | cell viability [25] [%] | cell viability [26] [%] | cell viability [27] [%] | cell viability [28] [%] | cell viability [29] [%] | cell viability [30] [%] | cell viability [31] [%] | cell viability [32] [%] | cell viability [33] [%]
CCCCCNC(=N)N/N=C/c1c[nH]c2ccc(OC)cc12 | 123 | 121 | 134 | 132 | 137 | 135 | 147 | 137 | 132 | 71.7 | 48.8 | 122 | 122 | 142 | 131 | 145 | 155 | 141 | 129 | 134 | 93.4 | 26.7 | – | – | – | – | – | – | – | – | – | – | –
Clc2cccc(Cl)c2\N=C1/NCCN1 | 117 | 101 | 118 | 105 | 125 | 135 | 121 | 118 | 132 | 128 | 122 | 102 | 113 | 124 | 120 | 112 | 118 | 113 | 124 | 105 | 116 | 111 | 105 | 130 | 109 | 123 | 122 | 121 | 123 | 137 | 120 | 114 | 115
N[S+](=O)([O-])c1ccc(Nc2nc(OCC3CCCCC3)c3[nH]cnc3n2)cc1 | 111 | 131 | 117 | 116 | 119 | 73.7 | 38.2 | 41.3 | 58.2 | 56.1 | 42.9 | 97.1 | 106 | 109 | 107 | 103 | 103 | 66.9 | 28.4 | 24.3 | 31.4 | 47.1 | 119 | 115 | 118 | 117 | 104 | 116 | 78.2 | 35.9 | 35 | 32 | 67.1
C[C@]1(O)CC(C1)C2=NC(=C3[N]2C=CN=C3N)C4=CC5=C(C=C4)C=CC(=N5)C6=CC=CC=C6 (stereo not given) | 95.7 | 83.7 | 104 | 89.9 | 107 | 72.2 | 75.1 | 53.8 | 31.8 | 3.24 | 4.22 | 86 | 88 | 92.8 | 85.6 | 87.4 | 85.3 | 83.5 | 64.3 | 33.7 | 3.26 | 2.26 | 86.2 | 73.9 | 83.8 | 91.6 | 90.5 | 65.8 | 82.5 | 53.3 | 37.7 | 4.27 | 1.68
CC[C@H]1OC(=O)[C@H](C)[C@@H](O[C@H]2C[C@@](C)(OC)[C@@H](O)[C@H](C)O2)[C@H](C)[C@@H](O[C@@H]2O[C@H](C)C[C@H](N(C)C)[C@H]2O)[C@](C)(OC)C[C@@H](C)C(=O)[C@H](C)[C@@H](O)[C@]1(C)O | 110 | 121 | 96.8 | 105 | 89.3 | 92.2 | 92.6 | 90.9 | 84.9 | 88.3 | 101 | 103 | 101 | 99.5 | 101 | 97 | 105 | 84 | 92.9 | 81.5 | 79.2 | 81.2 | 86.3 | 87.5 | 83.1 | 92.6 | 93.8 | 87.8 | 79.7 | 80.5 | 84 | 84.4 | 83.4
CCC(CCCC)COC(=O)C(\C#N)=C(\c1ccccc1)c2ccccc2 (stereo not given) | 76.5 | 102 | 84 | 117 | 101 | 101 | 98.5 | 92.8 | 107 | 98.5 | 107 | 92.6 | 91.8 | 86.2 | 101 | 101 | 93 | 92.5 | 104 | 97.8 | 109 | 105 | 87.4 | 85.8 | 84.4 | 94.6 | 94 | 91.7 | 90.4 | 91.5 | 89.1 | 87.2 | 96.2
O=C1NC(=O)/C(=C/c2ccc3nccnc3c2)S1 | 108 | 124 | 116 | 118 | 106 | 118 | 113 | 125 | 102 | 95.9 | 89.3 | 98.4 | 130 | 109 | 107 | 101 | 105 | 111 | 100 | 97.1 | 86.6 | 103 | 118 | 109 | 132 | 110 | 111 | 118 | 103 | 106 | 92.6 | 88.8 | 95.3
Cc1cn2cc(C(=O)N(C)CCO)cc(N[C@@H]3CCOc4cccc(C)c43)c2n1 | 93.8 | 105 | 112 | 118 | 122 | 115 | 110 | 131 | 119 | 108 | 130 | 96.2 | 108 | 107 | 104 | 105 | 106 | 113 | 111 | 122 | 117 | 129 | 105 | 104 | 114 | 130 | 114 | 110 | 122 | 117 | 115 | 128 | 129
CN1C(=O)/C(=C(NC2=CC=C(I)C=C2F)\C3=C1\N=C/N(C[C@@H](O)CO)C3=O)F | 68.9 | 64.9 | 72.1 | 58.8 | 48.5 | 48.8 | 41.3 | 33.7 | 30.2 | 36.2 | 26.4 | 69.9 | 77.6 | 78.7 | 52.5 | 48 | 45.7 | 31.1 | 34.6 | 30.7 | 37.8 | 32.7 | 69.2 | 60 | 71.1 | 46 | 48.9 | 41.7 | 37.5 | 33.7 | 32.7 | 31.8 | 29.5
CN1C(=O)c2sccc2N(C)c2nc(Nc3ccc([S+](N)(=O)[O-])cc3)ncc21 | 113 | 100 | 115 | 104 | 97 | 117 | 105 | 73.4 | 60.5 | 28.5 | 8.75 | 97.2 | 93.2 | 98.4 | 104 | 106 | 90.4 | 90 | 92.9 | 55.3 | 36.4 | 7.28 | 97.8 | 94.7 | 109 | 99.3 | 99 | 95.1 | 98.2 | 70.8 | 53.5 | 33.2 | 4.45
COc1cc(C(=O)NC2CCN(C)CC2)ccc1Nc1ncc2c(n1)N(C1CCCC1)CCC(=O)N2C(C)C | 103 | 121 | 110 | 122 | 118 | 112 | 115 | 113 | 115 | 58.3 | 9.06 | 99.3 | 105 | 101 | 108 | 102 | 118 | 102 | 107 | 119 | 75.7 | 15.2 | 92.7 | 113 | 100 | 110 | 100 | 106 | 104 | 117 | 109 | 105 | 20.6
Cc1nc(-c2ccc(OCC(C)C)c(C#N)c2)sc1C(=O)O | 104 | 123 | 127 | 128 | 142 | 126 | 153 | 137 | 140 | 118 | 138 | 111 | 128 | 119 | 121 | 137 | 129 | 138 | 137 | 117 | 131 | 118 | 120 | 123 | 120 | 116 | 132 | 131 | 122 | 125 | 125 | 125 | 129
COc1ccc(F)c(F)c1C(=O)c1cnc(NC2CCN([S+](C)(=O)[O-])CC2)nc1N | 106 | 135 | 123 | 117 | 119 | 124 | 118 | 93.6 | 45.6 | 7.59 | 3.32 | 104 | 118 | 103 | 102 | 109 | 109 | 100 | 98.9 | 46.3 | 15.1 | 3.38 | 105 | 101 | 102 | 106 | 107 | 102 | 83.8 | 90 | 54.1 | 15 | 2.57
NC(=O)c1cnccn1 | 105 | 120 | 147 | 133 | 140 | 140 | 143 | 141 | 145 | 126 | 148 | – | – | – | – | – | – | – | – | – | – | – | – | – | – | – | – | – | – | – | – | – | –
OC[C@H]1O[C@H](C[C@@H]1O)N2/C=C(C(=O)NC2=O)/C(F)(F)F | 128 | 120 | 106 | 116 | 120 | 114 | 82.8 | 58.8 | 69.7 | 45 | 26.5 | 99.8 | 117 | 116 | 116 | 114 | 107 | 118 | 115 | 107 | 86.9 | 42.9 | 115 | 110 | 121 | 113 | 103 | 113 | 97.4 | 96 | 67.7 | 31.3 | 18.3
CCC(C)CCCCC(=O)N[C@@H](CCN)C(=O)NC(C(=O)N[C@H](CCN)C(=O)N[C@@H]1CCNC(=O)C([C@@H](C)O)NC(=O)[C@@H](CCN)NC(=O)[C@@H](CCN)NC(=O)[C@@H](CC(C)C)NC(=O)[C@H](Cc2ccccc2)NC(=O)[C@H](CCN)NC1=O)[C@@H](C)O (stereo not given in full) | 118 | 110 | 113 | 112 | 123 | 133 | 137 | 119 | 124 | 127 | 125 | 102 | 125 | 109 | 108 | 112 | 120 | 118 | 130 | 130 | 126 | 115 | 113 | 121 | 134 | 130 | 131 | 131 | 137 | 134 | 124 | 135 | 123
